# Where “and” joins values, the source holds several entries; their conditions need not be identical. Identical values can stand only once. Counter-ions that a name gives are not always drawn. Like-named read-outs stand apart in the source and are kept apart here.
# Key:
# [1] = test system: pre-incubated microspores; assay: Glyphosate resistant embryo selection after bombarding pre-incubated microspores; format: cell-based, Brassica
# Protocol: Experiments 8 to 17 describe the work done using pre-incubated microspores. The microspores were cultured in NLN-17S/10S for 2-10 days. Optimally, the microspores are cultured for 5-7 days. Embryos could not be detected with the naked eye. The embryogenic microspores were collected so that they remain viable and embryogenic with a Nitex™ sieve (15-36 um in pore size) or Percoll® (35-45%) gradient centrifugation. Pre-incubated microspores were used as bombarded materials. Any Brassica line that is capable of regenerating by microspore culture can be used. The microspores were cultured for 1-3 days in NLN-17S at 31.5° C., and then in NLN-10S for 4-5 days at 25° C. The constructs used in the bombardments were PHP18644, PHP21965, PHP22024, PHP22021, and PHP23560 (see Table 9). The constructs can be the full plasmid or the expression cassette only. For example, PHP22024 can be either the expression cassette or the full plasmid. The pre-incubated microspores were filtrated with sieves of pore size of 15 μm to 36 μm. The collected microspores were used for bombardment. The microspores were loaded on a sieve 15 μm or 20 μm on two layers of filter-paper and dried for less than one minute. […] Resistant embryos were recorded after two to three weeks of culture. […]
# resistant embryos = assay: ABA application and embryo partial desiccation on embryo germination frequency; format: cell-based, canola
# Protocol: To further increase embryo germination frequency, abscisic acid (ABA) at 25 μM was added in microspore culture medium NLN-10S with 0.1 -0.2 mM glyphosate 14 days after bombardment. The resistant embryos were partially desiccated in a Petri dish for one week at 25° C. The Petri dish contained a piece of Bounty paper towel with water for maintaining moisture.
# [2] = test system: pre-incubated microspores; assay: Sucrose in osmotic medium: resistant embryo production; format: cell-based, Brassica; conditions: Total of 4 reps
# Protocol: The purpose of this experiment was to find the optimal concentration of sucrose in the osmotic medium. Microspores were cultured for 4-7 days using 17S/10S protocol. […] The rupture disk was 900 psi. […] The diluted cultures were incubated in the light for 2-3 weeks.
# [3] = test system: microspore-derived hypocotyls; assay: Sucrose in osmotic medium: transient GUS expression; format: cell-based, Brassica; conditions: for # with GUS: 24 hypocotyls
# Protocol: Experiments 3 to 7 describe work done using microspore-derived hypocotyls. Microspores were isolated as is known to those skilled in the art and cultured in NLN medium for 21 to 28 days (Swanson et al., 1987). Hypocotyls were excised from the embryos produced from the microspores when the embryos were approximately 3-5 mm in size. Microspores of cultivar 46A65 were cultured in NLN medium for approximately 21 days. On the 21st day, the NLN medium was changed and diluted (1:20) with fresh NLN medium and the embryos were cultured for 5 more days. The hypocotyls were excised from the embryos and preconditioned overnight on MMW+BAP (4 mg/l)+NAA (0.25 mg/l). The hypocotyls were transferred to osmotic medium (for example, 17% sucrose+1% agar+1 g/l MES, pH 6.0) for 4 hours and then bombarded. The DNA construct used in bombardments was PHP 18644. After bombardment, the hypocotyls were cultured on the osmotic medium for approximately between 4 and 20 hours (for example, overnight). The bombarded hypocotyls were then cultured on MMW+BAP (4 mg/l)+kanamycin (25-50 mg/l) for bud induction. Regenerated buds were cultured on MMW+kanamycin (50-100 mg/l) or MMW+BAP (0.2 mg/l)+kanamycin (50-100 mg/l) for plant regeneration. The following experiments were done to test the effect of sucrose concentration, amount of gold particle used and the effect of rupture disk on transformation frequency.
# The objective was to find the appropriate concentration of sucrose in the osmotic medium (sucrose+1% agar+1 g/l MES, pH 6.0) in order to produce the highest transformation efficiency.
# GUS analysis is known to those skilled in the art. The protocol can be found in numerous references, for example Wu H, McCormac A C, Elliott M C, Chen D F (1998) Agrobacterium-mediated s table transformation of cell suspension cultures of barley (Hordeum vulgare). Plant Cell Tissue and Organ Culture 54:161-171.
# [4] = test system: non-bombarded and bombarded embryos; assay: Effect of kanamycin on embryo growth in liquid medium; format: cell-based, Brassica
# Source text: (§1) The objective was to determine the concentration of G418 that kills non-transgenic microspores. Prior to this experiment, selection was done on solid medium, not in liquid medium. Using liquid selection for Brassica transgenic cells is novel. Selection in liquid medium is advantageous for at least the following reasons: (a) it allows selection at an early stage, thereby eliminating the need for subsequent transfers of explants, (b) it allows for a cleaner selection because the explants are generally smaller when they are in liquid medium and the liquid allows all the surfaces of the explant to be exposed to the selection agent, (c) it may reduce the frequency of chimeras, and (d) a lower amount of the selection agent is needed therefore reducing the toxicity to the researcher and the environment. The effect of various concentrations of kanamycin on embryo growth in liquid medium was tested. […] Accordingly, it was difficult to discriminate transgenic tissue or embryos from non-transgenic.
# microspores = test system: microspores
# Protocol: • DNA constructs with promoter AT-UBIQ10 and glyphosate resistant gene GAT4621 were used in the following experiments. • 1. […] In developing canola transformation procedure, microspores were cultured for two days or three days in IM-17M and then cultured in NLN-10S for one day or not before bombardment.
# • 2. Effect of CaC12 in IM-17M before bombardment and NLN-13S with 5 μM trifluralin on transformation efficiency • 15 mM calcium chloride was supplemented in IM-17M in microspore culture before bombardment.
# It was further studied that calcium chloride was supplemented in NLN-13S with 5 μM trifluralin after bombardment on transformation efficiency.
# embryos = assay: PCIB in embryo germination medium on germination frequency; format: cell-based, canola
# Protocol: • 4. Increase embryo germination frequency • One of technical challenges in canola transformation was that embryo germination frequency was only around 20%. Antiauxin 2-(p-Chlorophenoxy)-2-methylpropionic acid (PCIB) was included in embryo germination medium BGM for inhibiting callusing. Embryo germination frequency was doubled when 0.0625-1 mg/l PCIB was added in BGM with 0.1 mM glyphosate
# [5] = test system: non-transgenic microspores; assay: G418 selection kill curve: embryo growth and survival in liquid medium; format: cell-based, Brassica; conditions: for # Green embryos or with green island: liquid medium
# Source text: as §1
# [6] = ABA 25 μM plus partial desiccation
# [7] = 15 mM CaCl2 in IM-17M before bombardment, 24 shots
smiles,measurement,setting,value
O=C(O)CNCP(=O)(O)O [glyphosate],identification of resistant embryos,[1]; glyphosate 0.1 mM or 0.2 mM,allowed identification of resistant embryos
same,selection efficiency,[1]; glyphosate 0.2 mM versus 0.1 mM,fewer false positive results
"CC1=CC(=O)CC(C)(C)[C@@]1(O)/C=C/C(C)=C\C(=O)O [ABA, abscisic acid]",Total shoots,"resistant embryos; ABA 25 μM in NLN-10S 14 days after bombardment plus partial desiccation one week, 479 embryos",338
same,Germination,resistant embryos; [6],76.6%
same,"embryo germination frequency, change",resistant embryos; [6],significantly increased
"OC[C@H]1O[C@@](CO)(O[C@H]2O[C@H](CO)[C@@H](O)[C@H](O)[C@H]2O)[C@@H](O)[C@@H]1O [Sucrose, sucrose]",Resistant embryos/plate,[2]; 17% sucrose,2.5
same,Resistant embryos/plate,[2]; 19% sucrose,2.1
same,# spots/hypocotyls,[3]; 15% sucrose,9.8
same,# total spots,[3]; 15% sucrose,236
same,# with GUS,[3]; 15% sucrose,23
same,# spots/hypocotyls,[3]; 17% sucrose,10.1
same,# total spots,[3]; 17% sucrose,242
same,# with GUS,[3]; 17% sucrose,23
same,# spots/hypocotyls,[3]; 19% sucrose,19.8
same,# total spots,[3]; 19% sucrose,475
same,# with GUS,[3]; 19% sucrose,23
same,# spots/hypocotyls,[3]; 21% sucrose,16.7
same,# total spots,[3]; 21% sucrose,400
same,# with GUS,[3]; 21% sucrose,24
NC[C@H]1O[C@H](O[C@H]2[C@H](O)[C@@H](O[C@H]3O[C@H](CO)[C@@H](O)[C@H](N)[C@H]3O)[C@H](N)C[C@@H]2N)[C@H](O)[C@@H](O)[C@@H]1O [kanamycin],concentration sufficient to bleach non-bombarded embryos and inhibit non-bombarded embryo growth,[4],10 mg/L
"[Ca+2].[Cl-].[Cl-] [CaCl2, calcium chloride]",# embryos,microspores; [7],574
same,Embryos/shot,microspores; [7],23.9
same,Embryos/shot,"microspores; CaCl2 0 mM in IM-17M, 10 mM in NLN-13S + trifluralin",11
same,# embryos,"microspores; CaCl2 0 mM in IM-17M, 10 mM in NLN-13S + trifluralin, 15 shots",169
same,Embryos/shot,"microspores; CaCl2 0 mM in IM-17M, 20 mM in NLN-13S + trifluralin",16
same,# embryos,"microspores; CaCl2 0 mM in IM-17M, 20 mM in NLN-13S + trifluralin, 19 shots",300
same,Embryos/shot,"microspores; CaCl2 15 mM in IM-17M, 0 mM in NLN-13S + trifluralin",6
same,# embryos,"microspores; CaCl2 15 mM in IM-17M, 0 mM in NLN-13S + trifluralin, 22 shots",139
"CC(C)(Oc1ccc(Cl)cc1)C(=O)O [PCIB, 2-(p-Chlorophenoxy)-2-methylpropionic acid]","embryo germination frequency, change",embryos; 0.0625-1 mg/l PCIB in BGM with 0.1 mM glyphosate,doubled
same,Germination frequency,embryos; PCIB 0.0625 mg/l,44%
same,# plantlets,"embryos; PCIB 0.0625 mg/l in BGM with 0.1 mM glyphosate, 63 embryos",28
same,Germination frequency,embryos; PCIB 0.125 mg/l,43%
same,# plantlets,"embryos; PCIB 0.125 mg/l, 72 embryos",31
same,Germination frequency,embryos; PCIB 0.25 mg/l,50%
same,# plantlets,"embryos; PCIB 0.25 mg/l, 72 embryos",36
same,Germination frequency,embryos; PCIB 0.5 mg/l,44%
same,# plantlets,"embryos; PCIB 0.5 mg/l, 63 embryos",28
same,Germination frequency,embryos; PCIB 1 mg/l,44%
same,# plantlets,"embryos; PCIB 1 mg/l, 81 embryos",36
"CN[C@@H]1[C@@H](O)[C@@H](O[C@@H]2[C@@H](O)[C@H](O[C@H]3O[C@H]([C@@H](C)O)[C@@H](O)[C@H](O)[C@H]3N)[C@@H](N)C[C@H]2N)OC[C@]1(C)O [Variant G418, G418 disulfate salt]",# Green embryos or with green island,"[5]; G418 1.25 mg/l, disulfate salt",30 and 28
same,# Green embryos or with green island,"[5]; G418 2.5 mg/l, disulfate salt",14 and 11
same,# Green embryos or with green island,[5]; G418 5 mg/l,0
same,# Green embryos or with green island,[5]; G418 10 mg/l,0
same,concentration sufficient to differentiate transformed cells from untransformed cells,[5]; NLN with 6.5% sucrose medium,5 to 10 mg/L

# From patent publication US20210207153A1, “SYSTEMS AND METHODS FOR EDITING A PLANT GENOME” (PIONEER HI-BRED INTERNATIONAL, INC., priority 2018, published 2021)
